Laboratory results reported in ChEMBL document CHEMBL4376895.
Activity calls are given as the source filed them. The calls are words filed in the database; no cut-off is given here. Positions of bridges follow the written chain, without caps; N, C: chain ends. Residues, ends and D or L forms follow the SMILES beside them.

Legend:
Format in all cases: cell-based
[1] = molecular target: T1, Neuronal acetylcholine receptor; alpha4/beta4 (Rattus norvegicus) (UniProt P09483+P12392); test: Antagonist activity at rat alpha4beta4 nAChR expressed in Xenopus laevis oocytes assessed as inhibition of Ach-induced response up to 10 uM at -70 mV holding potential by two electrode voltage-clamp assay
[2] = molecular target: T2, Neuronal acetylcholine receptor; alpha2/beta4 (Rattus norvegicus) (UniProt P12389+P12392); test: Antagonist activity at rat alpha2beta4 nAChR expressed in Xenopus laevis oocytes assessed as inhibition of Ach-induced response up to 10 uM at -70 mV holding potential by two electrode voltage-clamp assay
[3] = molecular target: T3, Neuronal acetylcholine receptor; alpha4/beta2 (Rattus norvegicus) (UniProt P09483+P12390); test: Antagonist activity at rat alpha4beta2 nAChR expressed in Xenopus laevis oocytes assessed as inhibition of Ach-induced response up to 10 uM at -70 mV holding potential by two electrode voltage-clamp assay
[4] = molecular target: T1, Neuronal acetylcholine receptor; alpha4/beta4 (Rattus norvegicus); test: Antagonist activity at rat alpha4beta4 nAChR expressed in Xenopus laevis oocytes assessed as inhibition of Ach-induced response at >10 uM at -70 mV holding potential by two electrode voltage-clamp assay
[5] = molecular target: T4, Neuronal acetylcholine receptor; alpha9/alpha10 (Homo sapiens) (UniProt Q9UGM1+Q9GZZ6); test: Antagonist activity at human alpha9alpha10 nAChR expressed in Xenopus laevis oocytes assessed as inhibition of Ach-induced response at 50 nM at -70 mV holding potential by two electrode voltage-clamp assay relative to control
[6] = molecular target: T4, Neuronal acetylcholine receptor; alpha9/alpha10 (Homo sapiens); test: Antagonist activity at human alpha9alpha10 nAChR expressed in Xenopus laevis oocytes assessed as inhibition of Ach-induced response at 100 nM at -70 mV holding potential by two electrode voltage-clamp assay relative to control
[7] = molecular target: T2, Neuronal acetylcholine receptor; alpha2/beta4 (Rattus norvegicus); test: Antagonist activity at rat alpha2beta4 nAChR expressed in Xenopus laevis oocytes assessed as inhibition of Ach-induced response at >10 uM at -70 mV holding potential by two electrode voltage-clamp assay
[8] = molecular target: T3, Neuronal acetylcholine receptor; alpha4/beta2 (Rattus norvegicus); test: Antagonist activity at rat alpha4beta2 nAChR expressed in Xenopus laevis oocytes assessed as inhibition of Ach-induced response at >10 uM at -70 mV holding potential by two electrode voltage-clamp assay
[9] = molecular target: Nicotinic acetylcholine receptor alpha9/alpha10 (Rattus norvegicus) (UniProt P43144+Q9JLB5); test: Antagonist activity at rat alpha9alpha10 nAChR expressed in Xenopus laevis oocytes assessed as inhibition of Ach-induced response at 10 nM at -70 mV holding potential preincubated for 5 mins followed by compound washout by two electrode voltage-clamp assay

Compound	inhibition [1]	inhibition [2]	inhibition [3]	inhibition [4]	inhibition [5]	inhibition [6]	inhibition [7]	inhibition [8]	inhibition [9]
CC[C@H](C)[C@H](NC(=O)[C@H](CCCNC(=N)N)NC(=O)[C@H](CCCNC(=N)N)NC(=O)[C@@H]1CSSC[C@H](NC(=O)[C@H](Cc2ccc(O)cc2)NC(=O)[C@H](CCCNC(=N)N)NC(=O)CNC(=O)[C@H](CO)NC(=O)[C@H](CO)NC(=O)[C@H](CCCNC(=N)N)NC(=O)[C@H](C)NC(=O)[C@@H](N)[C@@H](C)O)C(=O)N[C@@H](CCCNC(=N)N)C(=O)N[C@@H](CO)C(=O)N2CCC[C@H]2C(=O)N[C@@H](Cc2ccc(O)cc2)C(=O)N[C@@H](CC(=O)O)C(=O)N[C@@H](CCCNC(=N)N)C(=O)N[C@@H](CCCNC(=N)N)C(=O)N[C@@H](CCCNC(=N)N)C(=O)N[C@@H](CCCNC(=N)N)C(=O)N[C@@H](Cc2ccc(O)cc2)C(=O)N1)C(=O)N[C@H](C(=O)N[C@@H](CC(=O)O)C(=O)N[C@@H](C)C(=O)N[C@@H](C)C(=O)N[C@H](C(=O)O)C(C)C)[C@@H](C)O	inactive	inactive	inactive						
CC[C@H](C)[C@H](NC(=O)[C@H](CCCNC(=N)N)NC(=O)[C@H](CCCNC(=N)N)NC(=O)[C@@H]1CSSC[C@H](NC(=O)[C@H](Cc2ccc(O)cc2)NC(=O)[C@H](CCCNC(=N)N)NC(=O)CNC(=O)[C@H](CO)NC(=O)[C@H](CO)NC(=O)[C@H](CCCNC(=N)N)NC(=O)[C@H](CO)NC(=O)[C@@H](N)[C@@H](C)O)C(=O)N[C@@H](CCCNC(=N)N)C(=O)N[C@@H](CO)C(=O)N2CCC[C@H]2C(=O)N[C@@H](Cc2ccc(O)cc2)C(=O)N[C@@H](CC(=O)O)C(=O)N[C@@H](CCCNC(=N)N)C(=O)N[C@@H](CCCNC(=N)N)C(=O)N[C@@H](CCCNC(=N)N)C(=O)N[C@@H](CCCNC(=N)N)C(=O)N[C@@H](Cc2ccc(O)cc2)C(=O)N1)C(=O)N[C@H](C(=O)N[C@@H](CC(=O)O)C(=O)N[C@@H](C)C(=O)N[C@@H](CO)C(=O)N[C@H](C(=O)O)C(C)C)[C@@H](C)O	inactive	inactive	inactive						
CC[C@H](C)[C@H](NC(=O)[C@H](CCCNC(=N)N)NC(=O)[C@H](CCCNC(=N)N)NC(=O)[C@H](C)NC(=O)[C@H](Cc1ccc(O)cc1)NC(=O)[C@H](CCCNC(=N)N)NC(=O)[C@H](CCCNC(=N)N)NC(=O)[C@H](CCCNC(=N)N)NC(=O)[C@H](CCCNC(=N)N)NC(=O)[C@H](CC(=O)O)NC(=O)[C@H](Cc1ccc(O)cc1)NC(=O)[C@@H]1CCCN1C(=O)[C@H](CO)NC(=O)[C@H](CCCNC(=N)N)NC(=O)[C@@H]1CSSC[C@H](NC(=O)[C@@H](N)[C@@H](C)O)C(=O)N[C@@H](CCCNC(=N)N)C(=O)N[C@@H](CO)C(=O)N[C@@H](CO)C(=O)NCC(=O)N[C@@H](CCCNC(=N)N)C(=O)N[C@@H](Cc2ccc(O)cc2)C(=O)N1)C(=O)N[C@H](C(=O)N[C@@H](CC(=O)O)C(=O)N[C@@H](C)C(=O)N[C@@H](C)C(=O)N[C@H](C(=O)O)C(C)C)[C@@H](C)O	inactive	inactive	inactive						
CC[C@H](C)[C@H](NC(=O)[C@H](CCCNC(=N)N)NC(=O)[C@H](CCCNC(=N)N)NC(=O)[C@H](CO)NC(=O)[C@H](Cc1ccc(O)cc1)NC(=O)[C@H](CCCNC(=N)N)NC(=O)[C@H](CCCNC(=N)N)NC(=O)[C@H](CCCNC(=N)N)NC(=O)[C@H](CCCNC(=N)N)NC(=O)[C@H](CC(=O)O)NC(=O)[C@H](Cc1ccc(O)cc1)NC(=O)[C@@H]1CCCN1C(=O)[C@H](CO)NC(=O)[C@H](CCCNC(=N)N)NC(=O)[C@@H]1CSSC[C@H](NC(=O)[C@@H](N)[C@@H](C)O)C(=O)N[C@@H](CCCNC(=N)N)C(=O)N[C@@H](CO)C(=O)N[C@@H](CO)C(=O)NCC(=O)N[C@@H](CCCNC(=N)N)C(=O)N[C@@H](Cc2ccc(O)cc2)C(=O)N1)C(=O)N[C@H](C(=O)N[C@@H](CC(=O)O)C(=O)N[C@@H](C)C(=O)N[C@@H](CO)C(=O)N[C@H](C(=O)O)C(C)C)[C@@H](C)O	inactive	inactive	inactive						
CC[C@H](C)[C@@H]1NC(=O)[C@H](CCCNC(=N)N)NC(=O)[C@H](CCCNC(=N)N)NC(=O)[C@@H](NC(=O)[C@H](Cc2ccc(O)cc2)NC(=O)[C@H](CCCNC(=N)N)NC(=O)[C@H](CCCNC(=N)N)NC(=O)[C@H](CCCNC(=N)N)NC(=O)[C@H](CCCNC(=N)N)NC(=O)[C@H](CC(=O)O)NC(=O)[C@H](Cc2ccc(O)cc2)NC(=O)[C@@H]2CCCN2C(=O)[C@H](CO)NC(=O)[C@H](CCCNC(=N)N)NC(=O)[C@H](C)NC(=O)[C@H](Cc2ccc(O)cc2)NC(=O)[C@H](CCCNC(=N)N)NC(=O)CNC(=O)[C@H](CO)NC(=O)[C@H](CO)NC(=O)[C@H](CCCNC(=N)N)NC(=O)[C@H](C)NC(=O)[C@@H](N)[C@@H](C)O)CSSC[C@@H](C(=O)N[C@H](C(=O)O)C(C)C)NC(=O)[C@H](C)NC(=O)[C@H](CC(=O)O)NC(=O)[C@H]([C@@H](C)O)NC1=O (H-TARSSGRYARSPYDRRRRYCRRITDACV-OH; disulfide 20-27)	inactive	inactive	inactive						
CC[C@H](C)[C@@H]1NC(=O)[C@H](CCCNC(=N)N)NC(=O)[C@H](CCCNC(=N)N)NC(=O)[C@H](C)NC(=O)[C@H](Cc2ccc(O)cc2)NC(=O)[C@H](CCCNC(=N)N)NC(=O)[C@H](CCCNC(=N)N)NC(=O)[C@H](CCCNC(=N)N)NC(=O)[C@H](CCCNC(=N)N)NC(=O)[C@H](CC(=O)O)NC(=O)[C@H](Cc2ccc(O)cc2)NC(=O)[C@@H]2CCCN2C(=O)[C@H](CO)NC(=O)[C@H](CCCNC(=N)N)NC(=O)[C@H](C)NC(=O)[C@H](Cc2ccc(O)cc2)NC(=O)[C@H](CCCNC(=N)N)NC(=O)CNC(=O)[C@H](CO)NC(=O)[C@H](CO)NC(=O)[C@H](CCCNC(=N)N)NC(=O)[C@@H](NC(=O)[C@@H](N)[C@@H](C)O)CSSC[C@@H](C(=O)N[C@H](C(=O)O)C(C)C)NC(=O)[C@H](C)NC(=O)[C@H](CC(=O)O)NC(=O)[C@H]([C@@H](C)O)NC1=O (H-TCRSSGRYARSPYDRRRRYARRITDACV-OH; disulfide 2-27)	inactive	inactive	inactive						
CC[C@H](C)[C@@H]1NC(=O)[C@H](CCCNC(=N)N)NC(=O)[C@H](CCCNC(=N)N)NC(=O)[C@H](CO)NC(=O)[C@H](Cc2ccc(O)cc2)NC(=O)[C@H](CCCNC(=N)N)NC(=O)[C@H](CCCNC(=N)N)NC(=O)[C@H](CCCNC(=N)N)NC(=O)[C@H](CCCNC(=N)N)NC(=O)[C@H](CC(=O)O)NC(=O)[C@H](Cc2ccc(O)cc2)NC(=O)[C@@H]2CCCN2C(=O)[C@H](CO)NC(=O)[C@H](CCCNC(=N)N)NC(=O)[C@H](CO)NC(=O)[C@H](Cc2ccc(O)cc2)NC(=O)[C@H](CCCNC(=N)N)NC(=O)CNC(=O)[C@H](CO)NC(=O)[C@H](CO)NC(=O)[C@H](CCCNC(=N)N)NC(=O)[C@@H](NC(=O)[C@@H](N)[C@@H](C)O)CSSC[C@@H](C(=O)N[C@H](C(=O)O)C(C)C)NC(=O)[C@H](C)NC(=O)[C@H](CC(=O)O)NC(=O)[C@H]([C@@H](C)O)NC1=O (H-TCRSSGRYSRSPYDRRRRYSRRITDACV-OH; disulfide 2-27)	inactive	inactive	inactive						
CC[C@H](C)[C@@H]1NC(=O)[C@H](CCCNC(=N)N)NC(=O)[C@H](CCCNC(=N)N)NC(=O)[C@@H](NC(=O)[C@H](Cc2ccc(O)cc2)NC(=O)[C@H](CCCNC(=N)N)NC(=O)[C@H](CCCNC(=N)N)NC(=O)[C@H](CCCNC(=N)N)NC(=O)[C@H](CCCNC(=N)N)NC(=O)[C@H](CC(=O)O)NC(=O)[C@H](Cc2ccc(O)cc2)NC(=O)[C@@H]2CCCN2C(=O)[C@H](CO)NC(=O)[C@H](CCCNC(=N)N)NC(=O)[C@H](CO)NC(=O)[C@H](Cc2ccc(O)cc2)NC(=O)[C@H](CCCNC(=N)N)NC(=O)CNC(=O)[C@H](CO)NC(=O)[C@H](CO)NC(=O)[C@H](CCCNC(=N)N)NC(=O)[C@H](CO)NC(=O)[C@@H](N)[C@@H](C)O)CSSC[C@@H](C(=O)N[C@H](C(=O)O)C(C)C)NC(=O)[C@H](C)NC(=O)[C@H](CC(=O)O)NC(=O)[C@H]([C@@H](C)O)NC1=O (H-TSRSSGRYSRSPYDRRRRYCRRITDACV-OH; disulfide 20-27)	inactive	inactive	inactive						
H-TARSSGRYARSPYDRRRRYARRITDAAV-OH	inactive	inactive	inactive						
H-TARSSGRYARSPYDRRRRYSRRITDASV-OH	inactive	inactive	inactive	Active	74%	100%	Active	Active	Active
H-TSRSSGRYSRSPYDRRRRYARRITDAAV-OH	inactive	inactive	inactive						
H-TSRSSGRYSRSPYDRRRRYSRRITDASV-OH	inactive	inactive	inactive						
